Drawing on ChEMBL document CHEMBL2074558, “rOCT2 is a basolateral potential-driven carrier, not an organic cation/proton exchanger” (Am J Physiol, 1999), this text covers Activity for three molecules.

Molecules are shown by their SMILES.

Holding throughout (format): functional, cell-based
Series [1] has as its target T1, Solute carrier family 22 member 2 (Rattus norvegicus, UniProt Q9R0W2).
T1 sequence (Q9R0W2 whole entry): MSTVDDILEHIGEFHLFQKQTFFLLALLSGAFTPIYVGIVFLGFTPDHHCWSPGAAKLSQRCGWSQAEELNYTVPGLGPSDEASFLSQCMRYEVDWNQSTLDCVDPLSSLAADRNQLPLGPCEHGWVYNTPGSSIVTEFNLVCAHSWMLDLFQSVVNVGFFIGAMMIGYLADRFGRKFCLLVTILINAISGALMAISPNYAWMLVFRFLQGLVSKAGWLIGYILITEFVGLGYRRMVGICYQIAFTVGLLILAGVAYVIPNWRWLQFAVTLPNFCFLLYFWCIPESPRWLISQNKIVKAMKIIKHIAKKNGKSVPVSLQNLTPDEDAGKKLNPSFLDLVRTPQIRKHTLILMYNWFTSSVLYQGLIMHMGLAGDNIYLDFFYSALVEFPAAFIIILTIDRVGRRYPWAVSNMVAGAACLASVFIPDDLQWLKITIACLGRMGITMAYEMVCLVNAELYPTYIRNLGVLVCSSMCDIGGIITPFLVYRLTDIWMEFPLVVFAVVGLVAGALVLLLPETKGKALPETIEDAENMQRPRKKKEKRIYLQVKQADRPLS
The experiment in a line: TP_TRANSPORTER: inhibition of TEA uptake (apical to cell)(TEA: 100 uM, NMN: 5000 uM) in OCT2-expressing MDCK cells. The note with it: dog.

The target in series [2] is T1, Solute carrier family 22 member 2. The experiment in a line: TP_TRANSPORTER: inhibition of TEA uptake (apical to cell)(TEA: 100 uM, Quinacrine: 200 uM) in OCT2-expressing MDCK cells. As to conditions: dog.
Series [3] shares this target. As to the kind of experiment: TP_TRANSPORTER: TEA uptake (TEA: 200 uM, Quinacrine: 200 uM) in Xenopus laevis oocytes. As to conditions: oocyte.
The target is the same in series [4]. As to the kind of experiment: TP_TRANSPORTER: inhibition of TEA uptake (apical to cell)(TEA: 100 uM, Quinine: 200 uM) in OCT2-expressing MDCK cells. The note with it: dog.
Series [5] has the same target. As to the kind of experiment: TP_TRANSPORTER: TEA uptake (TEA: 200 uM, Quinine: 200 uM) in Xenopus laevis oocytes. The note with it: oocyte.

As for `CNC(=O)c1cccnc1` [NICOTINYL METHYLAMIDE], in series [1], the Activity result was “inhibitor [+]”. Turning to `CCN(CC)CCCC(C)Nc1c2ccc(Cl)cc2nc2ccc(OC)cc12` (stereo not given) [QUINACRINE], the Activity result in series [2] and in series [3] was “inhibitor [+]” each time. For `C=C[C@H]1C[N@@]2CC[C@H]1C[C@H]2[C@H](O)c1ccnc2ccc(OC)cc12` [QUININE], the Activity result in series [4] and in series [5] was “inhibitor [+]” in each case.
